From ChEMBL document CHEMBL6120962, “New Mitochondria-Targeted Fisetin Derivative Compromises Mitophagy and Limits Survival of Drug-Induced Senescent Breast Cancer Cells” (J Med Chem, 2024)
Activity calls are given as the source filed them.

Key:
[1] = tested on: BJ; test: Cytotoxicity against human BJ cells assessed as effect on metabolic activity at 1 to 10 uM incubated for 24 hrs by MTT assay; type: toxicity, cell-based; conditions: dose 1-10 µM
[2] = tested on: HCC1428; test: Anticancer activity against ER-positive human HCC1428 cells assessed as effect on metabolic activity upto 10 uM incubated for 24 hrs by MTT assay; type: functional, cell-based
[3] = tested on: HCC1428; test: Induction of mitochondrial dysfunction in human HCC1428 cells assessed as decrease in spare respiratory capacity at 5 uM incubated for 6 hrs by real time analysis; type: functional, cell-based
[4] = Cytotoxicity against human MCF-10F cells assessed as effect on metabolic activity at 1 to 10 uM incubated for 24 hrs by MTT assay; type: toxicity, cell-based; conditions: dose 1-10 µM
[5] = tested on: CAMA-1; test: Anticancer activity against ER-positive human CAMA-1 cells assessed as effect on metabolic activity upto 10 uM incubated for 24 hrs by MTT assay; type: functional, cell-based
[6] = tested on: HCC1500; test: Anticancer activity against ER-positive human HCC1500 cells assessed as effect on metabolic activity upto 10 uM incubated for 24 hrs by MTT assay; type: functional, cell-based
[7] = tested on: HCC1428; test: Induction of mitochondrial dysfunction in human HCC1428 cells assessed as decrease in maximal respiration at 5 uM incubated for 6 hrs by real time analysis; type: functional, cell-based
[8] = tested on: HCC1428; test: Induction of mitochondrial dysfunction in human HCC1428 cells assessed as increase in proton leak at 5 uM incubated for 6 hrs by real time analysis; type: functional, cell-based
[9] = target: RAC-alpha serine/threonine-protein kinase (Homo sapiens) (UniProt P31749); test: Binding affinity to recombinant human AKT (14 to 276 residues) assessed as interaction by measuring decrease in chemiluminescence signal at 0.01 to 5 uM incubated overnight by dot-blot analysis; conditions: dose 0.01-5 µM
[10] = target: Apoptosis regulator Bcl-2 (Homo sapiens) (UniProt P10415); test: Binding affinity to recombinant human Bcl-2 assessed as interaction by measuring decrease in chemiluminescence signal at 0.01 to 5 uM incubated overnight by dot-blot analysis; conditions: dose 0.01-5 µM
[11] = tested on: HCC1428; test: Induction of mitochondrial dysfunction in human HCC1428 cells assessed as decrease in ATP production at 5 uM incubated for 6 hrs by real time analysis; type: functional, cell-based
[12] = tested on: HCC1428; test: Induction of mitochondrial dysfunction in human HCC1428 cells assessed as decrease in coupling efficiency at 5 uM incubated for 6 hrs by real time analysis; type: functional, cell-based
[13] = tested on: ZR-75-30; test: Anticancer activity against ER-positive human ZR-75-30 cells assessed as effect on metabolic activity upto 10 uM incubated for 24 hrs by MTT assay; type: functional, cell-based
[14] = tested on: BJ; test: Cytotoxicity against human BJ cells assessed as effect on metabolic activity at 10 uM incubated for 24 hrs by MTT assay; type: toxicity, cell-based
[15] = tested on: HCC1428; test: Induction of mitochondrial dysfunction in tamoxifen-induced senescent human HCC1428 cells assessed as decrease in coupling efficiency respiration at 5 uM incubated for 6 hrs by real-time analysis; type: functional, cell-based
[16] = tested on: HCC1428; test: Induction of apoptosis in tamoxifen-induced senescent human HCC1428 cells assessed as phosphatidylserine externalization at 1 to 5 uM incubated for 24 hrs by Annexin V-FITC staining based flow cytometric analysis; type: functional, cell-based; conditions: dose 1-5 µM
[17] = tested on: HCC1500; test: Induction of apoptosis in human HCC1500 cells assessed as phosphatidylserine externalization at 1 to 5 uM incubated for 24 hrs by Annexin V-FITC staining based flow cytometric analysis; type: functional, cell-based; conditions: dose 1-5 µM
[18] = tested on: Mitochondrial membrane; test: Induction of mitochondrial membrane potential depolarization in human HCC1500 cells at 1 to 5 uM incubated for 24 hrs by 7-AAD staining based flow cytometric analysis; type: cell membranes; conditions: dose 1-5 µM
[19] = tested on: HCC1428; test: Induction of apoptosis in human HCC1428 cells assessed as phosphatidylserine externalization at 1 to 5 uM incubated for 24 hrs by Annexin V-FITC staining based flow cytometric analysis; type: functional, cell-based; conditions: dose 1-5 µM
[20] = tested on: MCF-10F; test: Induction of mitochondrial dysfunction in tamoxifen-induced senescent human MCF-10F cells assessed as decrease in coupling efficiency at 5 uM incubated for 6 hrs by real-time analysis; type: functional, cell-based
[21] = tested on: MCF-10F; test: Induction of mitochondrial dysfunction in tamoxifen-induced senescent human MCF-10F cells assessed as decrease in maximal respiration at 5 uM incubated for 6 hrs by real-time analysis; type: functional, cell-based
[22] = tested on: HCC1428; test: Induction of mitochondrial dysfunction in tamoxifen-induced senescent human HCC1428 cells assessed as decrease in maximal respiration at 5 uM incubated for 6 hrs by real-time analysis; type: functional, cell-based
[23] = tested on: HCC1428; test: Induction of mitochondrial dysfunction in tamoxifen-induced senescent human HCC1428 cells assessed as decrease in spare respiratory capacity at 5 uM incubated for 6 hrs by real-time analysis; type: functional, cell-based
[24] = tested on: HCC1500; test: Induction of apoptosis in tamoxifen-induced senescent human HCC1500 cells assessed as phosphatidylserine externalization at 1 to 5 uM incubated for 24 hrs by Annexin V-FITC staining based flow cytometric analysis; type: functional, cell-based; conditions: dose 1-5 µM
[25] = tested on: HCC1428; test: Induction of autophagy in tamoxifen-induced senescent human HCC1428 cells assessed as increase in VPS34 level at 1 to 5 uM by immunostaining based imaging cytometric analysis; type: functional, cell-based; conditions: dose 1-5 µM
[26] = tested on: HCC1428; test: Anticancer activity against ER-positive human HCC1428 cells assessed as effect on metabolic activity at 10 uM incubated for 24 hrs by MTT assay; type: functional, cell-based
[27] = tested on: HCC1428; test: Induction of alternative mitophagy in tamoxifen-induced senescent human HCC1428 cells assessed as increase in Rab9 level at 1 to 5 uM by immunostaining based imaging cytometric analysis; type: functional, cell-based; conditions: dose 1-5 µM
[28] = tested on: HCC1428; test: Induction of autophagosome formation in tamoxifen-induced senescent human HCC1428 cells assessed as increase in LC3B level at 1 to 5 uM by immunostaining based imaging cytometric analysis; type: functional, cell-based; conditions: dose 1-5 µM
[29] = tested on: HCC1428; test: Induction of autophagy in tamoxifen-induced senescent human HCC1428 cells assessed as increase in ULK1 level at 1 to 5 uM by immunostaining based imaging cytometric analysis; type: functional, cell-based; conditions: dose 1-5 µM
[30] = tested on: CAMA-1; test: Induction of apoptosis in human CAMA-1 cells assessed as phosphatidylserine externalization at 1 to 5 uM incubated for 24 hrs by Annexin V-FITC staining based flow cytometric analysis; type: functional, cell-based; conditions: dose 1-5 µM
[31] = tested on: MCF-10F; test: Induction of mitochondrial dysfunction in tamoxifen-induced senescent human MCF-10F cells assessed as decrease in ATP production at 5 uM incubated for 6 hrs by real-time analysis; type: functional, cell-based
[32] = tested on: HCC1428; test: Induction of ubiquitin-dependent mitophagy in tamoxifen-induced senescent human HCC1428 cells assessed as increase in PINK1 level at 1 to 5 uM by immunostaining based imaging cytometric analysis; type: functional, cell-based; conditions: dose 1-5 µM
[33] = tested on: ZR-75-30; test: Induction of apoptosis in tamoxifen-induced senescent human ZR-75-30 cells assessed as phosphatidylserine externalization at 1 to 5 uM incubated for 24 hrs by Annexin V-FITC staining based flow cytometric analysis; type: functional, cell-based; conditions: dose 1-5 µM
[34] = tested on: HCC1428; test: Induction of ubiquitin-dependent mitophagy in tamoxifen-induced senescent human HCC1428 cells assessed as increase in parkin level at 1 to 5 uM by immunostaining based imaging cytometric analysis; type: functional, cell-based; conditions: dose 1-5 µM
[35] = tested on: ZR-75-30; test: Induction of apoptosis in human ZR-75-30 cells assessed as phosphatidylserine externalization at 1 to 5 uM incubated for 24 hrs by Annexin V-FITC staining based flow cytometric analysis; type: functional, cell-based; conditions: dose 1-5 µM
[36] = tested on: HCC1428; test: Induction of mitochondrial dysfunction in tamoxifen-induced senescent human HCC1428 cells assessed as increase in proton leak at 5 uM incubated for 6 hrs by real-time analysis; type: functional, cell-based
[37] = tested on: HCC1428; test: Upregulation of BECN1 level in tamoxifen-induced senescent human HCC1428 cells at 1 to 5 uM by immunostaining based imaging cytometric analysis; type: functional, cell-based; conditions: dose 1-5 µM
[38] = tested on: HCC1428; test: Induction of ubiquitin-independent mitophagy in tamoxifen-induced senescent human HCC1428 cells assessed as increase in BNIP3 level at 1 to 5 uM by immunostaining based imaging cytometric analysis; type: functional, cell-based; conditions: dose 1-5 µM
[39] = tested on: HCC1428; test: Induction of apoptosis in tamoxifen-induced senescent human HCC1428 cells assessed as decrease in AKT level at 5 uM incubated for 24 hrs by Western blotting analysis; type: functional, cell-based
[40] = tested on: Mitochondrial membrane; test: Induction of mitochondrial membrane potential depolarization in human ZR-75-30 cells at 1 to 5 uM incubated for 24 hrs by 7-AAD staining based flow cytometric analysis; type: cell membranes; conditions: dose 1-5 µM
[41] = tested on: MCF-10F; test: Induction of mitochondrial dysfunction in tamoxifen-induced senescent human MCF-10F cells assessed as decrease in spare respiratory capacity at 5 uM incubated for 6 hrs by real-time analysis; type: functional, cell-based
[42] = tested on: Mitochondrial membrane; test: Induction of mitochondrial membrane potential depolarization in human CAMA-1 cells at 1 to 5 uM incubated for 24 hrs by 7-AAD staining based flow cytometric analysis; type: cell membranes; conditions: dose 1-5 µM
[43] = tested on: HCC1428; test: Induction of autophagosome formation in tamoxifen-induced senescent human HCC1428 cells assessed as increase in ubiquitin level at 1 to 5 uM by immunostaining based imaging cytometric analysis; type: functional, cell-based; conditions: dose 1-5 µM
[44] = tested on: CAMA-1; test: Induction of apoptosis in tamoxifen-induced senescent human CAMA-1 cells assessed as phosphatidylserine externalization at 1 to 5 uM incubated for 24 hrs by Annexin V-FITC staining based flow cytometric analysis; type: functional, cell-based; conditions: dose 1-5 µM
[45] = tested on: Mitochondrial membrane; test: Induction of mitochondrial membrane potential depolarization in human HCC1428 cells at 1 to 5 uM incubated for 24 hrs by 7-AAD staining based flow cytometric analysis; type: cell membranes; conditions: dose 1-5 µM
[46] = tested on: MCF-10F; test: Induction of mitochondrial dysfunction in tamoxifen-induced senescent human MCF-10F cells assessed as increase in proton leak at 5 uM incubated for 6 hrs by real-time analysis; type: functional, cell-based
[47] = tested on: MCF7; test: Antitumor activity against ER-positive human MCF7 cells xenografted in Danio rerio embryo assessed as decrease in tumor size at 1 to 5 uM administered for 48 hrs by imaging analysis; type: functional, cell-based; conditions: dose 1-5 µM
[48] = tested on: T47D; test: Antitumor activity against ER-positive human T47D cells xenografted in Danio rerio embryo assessed as decrease in tumor size at 1 to 5 uM administered for 48 hrs by imaging analysis; type: functional, cell-based; conditions: dose 1-5 µM
[49] = tested on: HCC1428; test: Induction of mitochondrial dysfunction in tamoxifen-induced senescent human HCC1428 cells assessed as decrease in ATP production at 5 uM incubated for 6 hrs by real-time analysis; type: functional, cell-based

Measured: Activity

Chain of Apoptosis regulator Bcl-2 (Homo sapiens) (P10415 whole entry): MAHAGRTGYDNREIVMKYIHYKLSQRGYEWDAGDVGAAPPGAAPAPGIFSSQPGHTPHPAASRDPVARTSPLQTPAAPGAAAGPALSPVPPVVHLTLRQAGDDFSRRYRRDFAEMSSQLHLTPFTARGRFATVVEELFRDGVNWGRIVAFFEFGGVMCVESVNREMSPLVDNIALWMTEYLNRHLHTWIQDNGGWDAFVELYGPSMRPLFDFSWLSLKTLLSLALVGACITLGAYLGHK
Chain of RAC-alpha serine/threonine-protein kinase (Homo sapiens) (P31749 whole entry, the tested form may be a part): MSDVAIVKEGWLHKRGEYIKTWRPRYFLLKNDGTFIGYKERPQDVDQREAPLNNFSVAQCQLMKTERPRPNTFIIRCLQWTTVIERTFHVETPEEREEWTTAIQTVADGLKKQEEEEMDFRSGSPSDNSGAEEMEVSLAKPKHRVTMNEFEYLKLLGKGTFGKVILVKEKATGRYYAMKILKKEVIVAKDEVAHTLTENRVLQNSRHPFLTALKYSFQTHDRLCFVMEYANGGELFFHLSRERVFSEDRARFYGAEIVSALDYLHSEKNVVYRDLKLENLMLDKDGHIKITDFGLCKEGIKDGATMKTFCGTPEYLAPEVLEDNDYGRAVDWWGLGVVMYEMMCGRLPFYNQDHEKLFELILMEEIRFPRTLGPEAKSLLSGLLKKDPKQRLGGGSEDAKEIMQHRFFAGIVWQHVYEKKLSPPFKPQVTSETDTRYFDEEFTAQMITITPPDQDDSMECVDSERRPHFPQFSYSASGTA

CC(=O)Oc1c(-c2ccc3c(c2)OC(c2ccccc2)(c2ccccc2)O3)oc2cc(OCCCC[P+](c3ccccc3)(c3ccccc3)c3ccccc3)ccc2c1=O.[I-]
Non-toxic: [1] | [4]
active: [2] | [3] | [5] | [6] | [7] | [8] | [9] | [10] | [11] | [12] | [13]

O=c1c(O)c(-c2ccc(O)c(O)c2)oc2cc(O)ccc12 [FISETIN]
inactive: [15] | [16] | [17] | [18] | [19] | [20] | [21] | [22] | [23] | [24] | [25] | [27] | [28] | [29] | [30] | [31] | [32] | [33] | [34] | [35] | [36] | [37] | [38] | [40] | [41] | [42] | [43] | [44] | [45] | [46] | [47] | [48] | [49]
active: [26] | [39] | [9] | [10]
Toxic: [14]

O=c1c(O)c(-c2ccc3c(c2)OC(c2ccccc2)(c2ccccc2)O3)oc2cc(O)ccc12
inactive: [47] | [48]
Active; Slight Effect Observed: [3] | [7] | [8] | [11] | [12]
active: [9] | [10]
